In patent publication US6518243B1, “Desleucyl glycopeptide antibiotics and methods of making same” (Trustees of Princeton University, priority 1999, dated 2003):

System: E. faecalis (CL 4877)
Assay: Zone of inhibition screen, 96 well agar array format
Format: cell-based
Set-up: scale not given here
Protocol: The antibacterial activity of each of the compounds against the bacterial strains E. faceium (ATCC 49624), S. epidermidis (ATCC 12228), S. aureus (ATCC 29213), E. faecalis (CL 4877) and E. faecalis (ATCC 292121) was tested. Each of the compounds was screened in a 96 will agar array format.

[1] = zone of inhibition relative to 1 mg/ml stock solution of p-chlorobiphenylvancomycin
[2] = zone of inhibition relative to 1 mg/ml p-chlorobiphenylvancomycin

Row | SMILES | zone score, E. faecalis CL 4877 [1] | zone score, E. faecalis CL 4877 [2]
1 | CC1OC(OC2C(Oc3c4cc5cc3Oc3ccc(cc3Cl)[C@@H](O)[C@@H](NC(=O)[C@H]3CC(=O)NC(=O)N3)C(=O)N[C@@H](CC(N)=O)C(=O)N[C@H]5C(=O)NC3C(=O)N[C@H](C(=O)N[C@@H](C(=O)O)c5cc(O)cc(O)c5-c5cc3ccc5O)[C@H](O)c3ccc(c(Cl)c3)O4)OC(CO)C(O)C2O)CC(C)(NCc2ccc(-c3ccc(Cl)cc3)cc2)C1O (stereo partly drawn) [Compound 168] | 2 | 
2 | CC1OC(OC2C(Oc3c4cc5cc3Oc3ccc(cc3Cl)[C@@H](O)[C@@H](NC(=O)CS(C)(=O)=O)C(=O)N[C@@H](CC(N)=O)C(=O)N[C@H]5C(=O)NC3C(=O)N[C@H](C(=O)N[C@@H](C(=O)O)c5cc(O)cc(O)c5-c5cc3ccc5O)[C@H](O)c3ccc(c(Cl)c3)O4)OC(CO)C(O)C2O)CC(C)(NCc2ccc(-c3ccc(Cl)cc3)cc2)C1O (stereo partly drawn) [Compound 171] | 2 | 
3 | COc1ccc(C(SC[C@H](N)C(=O)N[C@H]2C(=O)N[C@@H](CC(N)=O)C(=O)N[C@H]3C(=O)N[C@H]4C(=O)N[C@H](C(=O)N[C@@H](C(=O)O)c5cc(O)cc(O)c5-c5cc4ccc5O)[C@H](O)c4ccc(c(Cl)c4)Oc4cc3cc(c4O[C@@H]3O[C@H](CO)[C@@H](O)[C@H](O)[C@H]3O[C@@H]3C[C@@](C)(NCc4ccc(-c5ccc(Cl)cc5)cc4)[C@@H](O)[C@@H](C)O3)Oc3ccc(cc3Cl)[C@H]2O)(c2ccccc2)c2ccccc2)cc1 [Compound 6] | 2 | 
4 | CC1OC(OC2C(Oc3c4cc5cc3Oc3ccc(cc3Cl)C(O)C3NC(=O)C(NC(=O)C5NC(=O)C(CC(N)=O)NC(=O)C(NC(=O)c5cccnc5O)C(O)c5ccc(c(Cl)c5)O4)c4ccc(O)c(c4)-c4c(O)cc(O)cc4C(C(=O)O)NC3=O)OC(CO)C(O)C2O)CC(C)(NCc2ccc(-c3ccc(Cl)cc3)cc2)C1O (stereo not drawn) [Compound 241] |  | 2
5 | CC1OC(OC2C(Oc3c4cc5cc3Oc3ccc(cc3Cl)C(O)C3NC(=O)C(NC(=O)C5NC(=O)C(CC(N)=O)NC(=O)C(NC(=O)C(O)CN)C(O)c5ccc(c(Cl)c5)O4)c4ccc(O)c(c4)-c4c(O)cc(O)cc4C(C(=O)O)NC3=O)OC(CO)C(O)C2O)CC(C)(NCc2ccc(-c3ccc(Cl)cc3)cc2)C1O (mixture of isomers) [Compound 60] | 2 | 
6 | CC1OC(OC2C(Oc3c4cc5cc3Oc3ccc(cc3Cl)C(O)C3NC(=O)C(NC(=O)C5NC(=O)C(CC(N)=O)NC(=O)C(NC(=O)CN(C)C(=N)N)C(O)c5ccc(c(Cl)c5)O4)c4ccc(O)c(c4)-c4c(O)cc(O)cc4C(C(=O)O)NC3=O)OC(CO)C(O)C2O)CC(C)(NCc2ccc(-c3ccc(Cl)cc3)cc2)C1O (stereo not drawn) [Compound 145] | 2 | 
7 | CC1OC(OC2C(Oc3c4cc5cc3Oc3ccc(cc3Cl)C(O)C3NC(=O)C(NC(=O)C5NC(=O)C(CC(N)=O)NC(=O)C(NC(=O)CNC(=O)CNC(=O)OC(C)(C)C)C(O)c5ccc(c(Cl)c5)O4)c4ccc(O)c(c4)-c4c(O)cc(O)cc4C(C(=O)O)NC3=O)OC(CO)C(O)C2O)CC(C)(NCc2ccc(-c3ccc(Cl)cc3)cc2)C1O (stereo not drawn) [Compound 140] | 2 | 
8 | CC1OC(OC2C(Oc3c4cc5cc3Oc3ccc(cc3Cl)C(O)C3NC(=O)C(NC(=O)C5NC(=O)C(CC(N)=O)NC(=O)C(NC(=O)C(NC(N)=O)NC(N)=O)C(O)c5ccc(c(Cl)c5)O4)c4ccc(O)c(c4)-c4c(O)cc(O)cc4C(C(=O)O)NC3=O)OC(CO)C(O)C2O)CC(C)(NCc2ccc(-c3ccc(Cl)cc3)cc2)C1O (stereo not drawn) [Compound 126] | 2 | 
9 | CC1OC(OC2C(Oc3c4cc5cc3Oc3ccc(cc3Cl)C(O)C3NC(=O)C(NC(=O)C5NC(=O)C(CC(N)=O)NC(=O)C(NC(=O)c5cnccn5)C(O)c5ccc(c(Cl)c5)O4)c4ccc(O)c(c4)-c4c(O)cc(O)cc4C(C(=O)O)NC3=O)OC(CO)C(O)C2O)CC(C)(NCc2ccc(-c3ccc(Cl)cc3)cc2)C1O (stereo not drawn) [Compound 103] | 2 | 
10 | C[C@H]1O[C@H](O[C@H]2[C@H](Oc3c4cc5cc3Oc3ccc(cc3Cl)[C@@H](O)[C@@H](NC(=O)/C=C/c3ccc(Cl)c(Cl)c3)C(=O)N[C@@H](CC(N)=O)C(=O)N[C@H]5C(=O)N[C@H]3C(=O)N[C@H](C(=O)N[C@@H](C(=O)O)c5cc(O)cc(O)c5-c5cc3ccc5O)[C@H](O)c3ccc(c(Cl)c3)O4)O[C@H](CO)[C@@H](O)[C@@H]2O)C[C@@](C)(NCc2ccc(-c3ccc(Cl)cc3)cc2)[C@H]1O [Compound 251] |  | 2
11 | CC(=O)NC(CCCNC(=N)N)C(=O)NC1C(=O)NC(CC(N)=O)C(=O)NC2C(=O)NC3C(=O)NC(C(=O)NC(C(=O)O)c4cc(O)cc(O)c4-c4cc3ccc4O)C(O)c3ccc(c(Cl)c3)Oc3cc2cc(c3OC2OC(CO)C(O)C(O)C2OC2CC(C)(NCc3ccc(-c4ccc(Cl)cc4)cc3)C(O)C(C)O2)Oc2ccc(cc2Cl)C1O (stereo not drawn) [Compound 111] | 2 | 
12 | CC(=O)NC(CO)C(=O)NC1C(=O)NC(CC(N)=O)C(=O)NC2C(=O)NC3C(=O)NC(C(=O)NC(C(=O)O)c4cc(O)cc(O)c4-c4cc3ccc4O)C(O)c3ccc(c(Cl)c3)Oc3cc2cc(c3OC2OC(CO)C(O)C(O)C2OC2CC(C)(NCc3ccc(-c4ccc(Cl)cc4)cc3)C(O)C(C)O2)Oc2ccc(cc2Cl)C1O (mixture of isomers) [Compound 178] | 2 | 
13 | C[C@H]1O[C@H](O[C@H]2[C@H](Oc3c4cc5cc3Oc3ccc(cc3Cl)[C@@H](O)[C@@H](NC(=O)[C@@H](N)CC(=O)NC(c3ccccc3)(c3ccccc3)c3ccccc3)C(=O)N[C@@H](CC(N)=O)C(=O)N[C@H]5C(=O)N[C@H]3C(=O)N[C@H](C(=O)N[C@@H](C(=O)O)c5cc(O)cc(O)c5-c5cc3ccc5O)[C@H](O)c3ccc(c(Cl)c3)O4)O[C@H](CO)[C@@H](O)[C@@H]2O)C[C@@](C)(NCc2ccc(-c3ccc(Cl)cc3)cc2)[C@H]1O [Compound 2] | 2 | 
14 | CC1OC(OC2C(Oc3c4cc5cc3Oc3ccc(cc3Cl)C(O)C3NC(=O)C(NC(=O)C5NC(=O)C(CC(N)=O)NC(=O)C(NC(=O)C(O)CO)C(O)c5ccc(c(Cl)c5)O4)c4ccc(O)c(c4)-c4c(O)cc(O)cc4C(C(=O)O)NC3=O)OC(CO)C(O)C2O)CC(C)(NCc2ccc(-c3ccc(Cl)cc3)cc2)C1O (mixture of isomers) [Compound 152] | 2 | 
15 | CC1OC(OC2C(Oc3c4cc5cc3Oc3ccc(cc3Cl)C(O)C3NC(=O)C(NC(=O)C5NC(=O)C(CC(N)=O)NC(=O)C(NC(=O)C(CC(N)=O)NC(=O)OC(C)(C)C)C(O)c5ccc(c(Cl)c5)O4)c4ccc(O)c(c4)-c4c(O)cc(O)cc4C(C(=O)O)NC3=O)OC(CO)C(O)C2O)CC(C)(NCc2ccc(-c3ccc(Cl)cc3)cc2)C1O (stereo not drawn) [Compound 133] | 2 | 
16 | CC1OC(OC2C(Oc3c4cc5cc3Oc3ccc(cc3Cl)C(O)C3NC(=O)C(NC(=O)C5NC(=O)C(CC(N)=O)NC(=O)C(NC(=O)C(Cc5c[nH]cn5)NC(N)=O)C(O)c5ccc(c(Cl)c5)O4)c4ccc(O)c(c4)-c4c(O)cc(O)cc4C(C(=O)O)NC3=O)OC(CO)C(O)C2O)CC(C)(NCc2ccc(-c3ccc(Cl)cc3)cc2)C1O (stereo not drawn) [Compound 192] | 2 | 
17 | CC(=O)NC(CCCNC(=N)N)C(=O)NC1C(=O)NC(CC(N)=O)C(=O)NC2C(=O)NC3C(=O)NC(C(=O)NC(C(=O)O)c4cc(O)cc(O)c4-c4cc3ccc4O)C(O)c3ccc(c(Cl)c3)Oc3cc2cc(c3OC2OC(CO)C(O)C(O)C2OC2CC(C)(NCc3ccc(-c4ccc(Cl)cc4)cc3)C(O)C(C)O2)Oc2ccc(cc2Cl)C1O (stereo not drawn) [Compound 184] | 2 | 
18 | CC(=O)CC(=O)NCC(=O)N[C@H]1C(=O)N[C@@H](CC(N)=O)C(=O)N[C@H]2C(=O)NC3C(=O)N[C@H](C(=O)N[C@@H](C(=O)O)c4cc(O)cc(O)c4-c4cc3ccc4O)[C@H](O)c3ccc(c(Cl)c3)Oc3cc2cc(c3OC2OC(CO)C(O)C(O)C2OC2CC(C)(NCc3ccc(-c4ccc(Cl)cc4)cc3)C(O)C(C)O2)Oc2ccc(cc2Cl)[C@H]1O (stereo partly drawn) [Compound 172] | 2 | 
19 | CC1OC(OC2C(Oc3c4cc5cc3Oc3ccc(cc3Cl)C(O)C3NC(=O)C(NC(=O)C5NC(=O)C(CC(N)=O)NC(=O)C(NC(=O)c5nccnc5N)C(O)c5ccc(c(Cl)c5)O4)c4ccc(O)c(c4)-c4c(O)cc(O)cc4C(C(=O)O)NC3=O)OC(CO)C(O)C2O)CC(C)(NCc2ccc(-c3ccc(Cl)cc3)cc2)C1O (stereo not drawn) [Compound 105] | 2 | 
20 | CC1OC(OC2C(Oc3c4cc5cc3Oc3ccc(cc3Cl)C(O)C3NC(=O)C(NC(=O)C5NC(=O)C(CC(N)=O)NC(=O)C(NC(=O)CC5OCC6CN7CC8C9=CC(=O)C(=O)C([N+](=O)[O-])=C9NC8C5C6CC7C)C(O)c5ccc(c(Cl)c5)O4)c4ccc(O)c(c4)-c4c(O)cc(O)cc4C(C(=O)O)NC3=O)OC(CO)C(O)C2O)CC(C)(NCc2ccc(-c3ccc(Cl)cc3)cc2)C1O (stereo not drawn) [Compound 144] | 2 | 
21 | CC1OC(OC2C(Oc3c4cc5cc3Oc3ccc(cc3Cl)[C@@H](O)[C@@H](NC(=O)CNC(=O)CNC(=O)CNC(=O)c3ccccc3)C(=O)N[C@@H](CC(N)=O)C(=O)N[C@H]5C(=O)NC3C(=O)N[C@H](C(=O)N[C@@H](C(=O)O)c5cc(O)cc(O)c5-c5cc3ccc5O)[C@H](O)c3ccc(c(Cl)c3)O4)OC(CO)C(O)C2O)CC(C)(NCc2ccc(-c3ccc(Cl)cc3)cc2)C1O (stereo partly drawn) [Compound 161] | 2 | 
22 | CC1OC(OC2C(Oc3c4cc5cc3Oc3ccc(cc3Cl)C(O)C3NC(=O)C(NC(=O)C5NC(=O)C(CC(N)=O)NC(=O)C(NC(=O)C5CC(=O)N5)C(O)c5ccc(c(Cl)c5)O4)c4ccc(O)c(c4)-c4c(O)cc(O)cc4C(C(=O)O)NC3=O)OC(CO)C(O)C2O)CC(C)(NCc2ccc(-c3ccc(Cl)cc3)cc2)C1O (stereo not drawn) [Compound 96] | 2 | 
23 | CC1OC(OC2C(Oc3c4cc5cc3Oc3ccc(cc3Cl)C(O)C3NC(=O)C(NC(=O)C5NC(=O)C(CC(N)=O)NC(=O)C(NC(=O)c5ccc(N)cc5)C(O)c5ccc(c(Cl)c5)O4)c4ccc(O)c(c4)-c4c(O)cc(O)cc4C(C(=O)O)NC3=O)OC(CO)C(O)C2O)CC(C)(NCc2ccc(-c3ccc(Cl)cc3)cc2)C1O (stereo not drawn) [Compound 268] |  | 2
24 | CC(=O)NC(C)C(=O)NC1C(=O)NC(CC(N)=O)C(=O)NC2C(=O)NC3C(=O)NC(C(=O)NC(C(=O)O)c4cc(O)cc(O)c4-c4cc3ccc4O)C(O)c3ccc(c(Cl)c3)Oc3cc2cc(c3OC2OC(CO)C(O)C(O)C2OC2CC(C)(NCc3ccc(-c4ccc(Cl)cc4)cc3)C(O)C(C)O2)Oc2ccc(cc2Cl)C1O (mixture of isomers) [Compound 174] | 2 | 
